Test results taken from article PMC12543283, “TastepepAI: An artificial intelligence platform for taste peptide de novo design” (PLOS Computational Biology, 2025).
Ends that are not written are not given here.

Columns and labels:
[1] = Electronic tongue analysis (Taste-Sensing System SA 402B); set-up: unit not given here; conditions: reference solution 30 mM KCl + 0.3 mM tartaric acid as baseline, first measurement excluded; for Umami: sensor AAE; for Umami / Bitter / Sweet: detection threshold 0, room temperature; for Umami / Bitter / Sour / Salty: four replicates; for Sour: detection threshold -13, room temperature; for Salty: detection threshold -6, room temperature; for Sweet: measured five times
Outline: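 Room-temperature electronic-tongue readings with five taste probes, calibrated against a reference of 30 mM KCl and 0.3 mM tartaric acid. Samples at 0.1 mg/mL and 1.0 mg/mL were measured four times, sweetness five times, and the first run was dropped. Detection cut-offs were sour −13, salty −6, others 0.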

[2] = tested on: human bronchial epithelial cells (BEAS-2B)
[3] = tested on: human embryonic kidney cells (HEK293T)
[4] = tested on: human pancreatic ductal epithelial cells (HPNE)
[5] = tested on: human umbilical vein endothelial cells (HUVEC)

| Substance | Umami ([1]; peptide 0.1 mg/mL) | Umami ([1]; peptide 1 mg/mL) | Bitter ([1]; sensor C00, peptide 0.1 mg/mL) | Bitter ([1]; sensor C00, peptide 1 mg/mL) | Sour ([1]; sensor CA0, peptide 0.1 mg/mL) | Sour ([1]; sensor CA0, peptide 1 mg/mL) | Salty ([1]; sensor CT0, peptide 0.1 mg/mL) | Salty ([1]; sensor CT0, peptide 1 mg/mL) | Sweet ([1]; sensor GL1, peptide 0.1 mg/mL) | Sweet ([1]; sensor GL1, peptide 1 mg/mL) | Average cell viability, BEAS-2B [2] | Cell viability, BEAS-2B, Data1 [2] | Cell viability, BEAS-2B, Data2 [2] | Cell viability, BEAS-2B, Data3 [2] | Average cell viability, HEK293T [3] | Cell viability, HEK293T, Data1 [3] | Cell viability, HEK293T, Data2 [3] | Cell viability, HEK293T, Data3 [3] | Average cell viability, HPNE [4] | Cell viability, HPNE, Data1 [4] | also measured |
| --- | --- | --- | --- | --- | --- | --- | --- | --- | --- | --- | --- | --- | --- | --- | --- | --- | --- | --- | --- | --- | --- |
| KNDESVD [TaPep48] | 1.19 | -4.97 | 7.92 | 4.06 | -2.20 | 12.29 | -19.00 | 9.10 | 5.24 | -3.88 | 98.21 | 105.18 | 91.23 | 98.21 | 103.91 | 103.15 | 102.59 | 105.99 | 102.66 | 87.85 | Cell viability, HPNE, Data2 [4]: 109.32; Cell viability, HPNE, Data3 [4]: 110.82; Average cell viability, HUVEC [5]: 107.58; Cell viability, HUVEC, Data1 [5]: 110.24; Cell viability, HUVEC, Data2 [5]: 102.34; Cell viability, HUVEC, Data3 [5]: 110.16 |
| KTYSA [TaPep49] | 0.96 | -3.34 | 7.26 | 2.53 | -7.10 | 8.30 | -15.59 | 11.00 | 7.69 | -3.73 | 100.60 | 99.20 | 96.41 | 106.18 | 96.97 | 99.94 | 94.54 | 96.44 | 94.58 | 82.96 | Cell viability, HPNE, Data2 [4]: 86.76; Cell viability, HPNE, Data3 [4]: 114.01; Average cell viability, HUVEC [5]: 102.29; Cell viability, HUVEC, Data1 [5]: 99.15; Cell viability, HUVEC, Data2 [5]: 103.94; Cell viability, HUVEC, Data3 [5]: 103.78 |
| LGDDLVK [TaPep19] | 2.00 | -4.34 | 7.19 | 3.19 | -4.23 | 10.91 | -21.50 | 8.70 | 6.20 | -4.08 | 111.70 | 111.27 | 110.77 | 113.06 | 106.88 | 110.63 | 106.37 | 103.63 | 100.07 | 102.93 | Cell viability, HPNE, Data2 [4]: 114.51; Cell viability, HPNE, Data3 [4]: 82.76; Average cell viability, HUVEC [5]: 102.69; Cell viability, HUVEC, Data1 [5]: 92.52; Cell viability, HUVEC, Data2 [5]: 103.78; Cell viability, HUVEC, Data3 [5]: 111.76 |
| LGGDL [TaPep58] | 2.07 | -4.23 | 7.49 | 3.43 | -4.24 | 10.37 | -21.68 | 10.46 | 7.50 | -6.69 | 99.93 | 103.89 | 90.43 | 105.48 | 101.42 | 99.84 | 107.22 | 97.19 | 94.58 | 94.94 | Cell viability, HPNE, Data2 [4]: 87.85; Cell viability, HPNE, Data3 [4]: 100.93; Average cell viability, HUVEC [5]: 99.81; Cell viability, HUVEC, Data1 [5]: 89.41; Cell viability, HUVEC, Data2 [5]: 103.78; Cell viability, HUVEC, Data3 [5]: 106.25 |
| LNDVE [TaPep66] | 1.83 | -3.37 | 7.14 | 4.03 | -3.77 | 8.49 | -21.50 | 4.47 | 6.93 | -3.10 | 98.04 | 103.39 | 89.73 | 101.00 | 101.96 | 96.81 | 102.97 | 106.09 | 110.62 | 96.14 | Cell viability, HPNE, Data2 [4]: 118.00; Cell viability, HPNE, Data3 [4]: 117.70; Average cell viability, HUVEC [5]: 96.70; Cell viability, HUVEC, Data1 [5]: 88.85; Cell viability, HUVEC, Data2 [5]: 100.59; Cell viability, HUVEC, Data3 [5]: 100.67 |
| LNGPQ [TaPep63] | 1.41 | -6.21 | 7.27 | 4.12 | -2.72 | 15.39 | -20.42 | 10.16 | 5.62 | -5.33 | 103.52 | 114.46 | 93.02 | 103.09 | 99.12 | 94.35 | 104.86 | 98.14 | 97.14 | 82.16 | Cell viability, HPNE, Data2 [4]: 94.94; Cell viability, HPNE, Data3 [4]: 114.31; Average cell viability, HUVEC [5]: 95.61; Cell viability, HUVEC, Data1 [5]: 91.41; Cell viability, HUVEC, Data2 [5]: 96.35; Cell viability, HUVEC, Data3 [5]: 99.07 |
